Measured values from US20120122727A1, “IN VITRO METHOD FOR PREDICTING WHETHER A COMPOUND IS GENOTOXIC IN VIVO” (priority 2009, published 2012).

System: primary mouse hepatocytes
Test: Gene expression (Affymetrix Mouse Genome 430 2.0) in primary mouse hepatocytes, true vs false GTX, 24 h and 48 h
Details: log2, corrected for vehicle control

SMILES: Nc1ccccc1C(=O)O [ANAC, o-Anthranilic acid]
- Gene expression data AF000969 (Cadps2) (24 h average): −0.12
- Gene expression data AF022072 (Grb10) (24 h average): 0.4544
- Gene expression data AF065917 (Lif) (24 h average): −0.2023
- Gene expression data AF204959 (Cyp3a25 /// LOC622249) (24 h average): −0.28
- Gene expression data AF297615 (Ggta1) (24 h average): 0.03103
- Gene expression data AI594683 (Dmn) (24 h average): −0.2163
- Gene expression data AI596632 (Ptprg /// LOC632664) (24 h average): 0.1214
- Gene expression data AI987929 (Ndrg1) (24 h average): 0.6977
- Gene expression data AK004419 (Fbxl17) (24 h average): −0.01793
- Gene expression data AK005731 (1700007K13Rik) (24 h average): −0.1733
- Gene expression data AK007766 (1810044A24Rik) (24 h average): −0.05167
- Gene expression data AK007854 (1810053B23Rik) (24 h average): −0.4283
- Gene expression data AK009736 (Gpr137b /// LOC664862 /// LOC673335) (24 h average): −0.0957
- Gene expression data AK010447 (Smyd3) (24 h average): −0.1211
- Gene expression data AK014608 (4632434l11Rik) (24 h average): −0.1768
- Gene expression data AK019979 (2610528E23Rik) (24 h average): 0.1139
- Gene expression data AV095209 (Mthfd1l) (24 h average): 0.3162
- Gene expression data AV141095 (1110033M05Rik) (24 h average): −0.1293
- Gene expression data AV173571 (1700106N22Rik) (24 h average): −0.1574
- Gene expression data AV219418 (Ldhb) (24 h average): −0.2907
- Gene expression data AV223474 (Zdhhc14) (24 h average): −0.07347
- Gene expression data AV298304 (Homez) (24 h average): −0.0861
- Gene expression data AV327248 (Zfp365 /// LOC674611) (24 h average): 0.0212
- Gene expression data AV377066 (9130221J18Rik) (24 h average): −0.2482
- Gene expression data AW240761 (Tbc1d5) (24 h average): 0.001667
- Gene expression data AW543460 (Pard3) (24 h average): 0.06037
- Gene expression data AW543723 (24 h average): 0.2943
- Gene expression data AW986246 (Maoa) (24 h average): 0.01683
- Gene expression data BB027848 (4732466D17Rik) (24 h average): −0.03697
- Gene expression data BB043558 (9230114K14Rik) (24 h average): −0.1292
- Gene expression data BB275142 (AW456874) (24 h average): 0.02823
- Gene expression data BB308836 (Ppm1l) (24 h average): −0.0317
- Gene expression data BB318221 (Zdhhc14) (24 h average): 0.0002333
- Gene expression data BB463610 (4632434l11Rik) (24 h average): −0.3672
- Gene expression data BB526605 (Mipol1) (24 h average): 0.3407
- Gene expression data BB770528 (Rai2) (24 h average): −0.08327
- Gene expression data BB821363 (Scfd2) (24 h average): −0.084
- Gene expression data BC004827 (Psat1) (24 h average): 0.3937
- Gene expression data BC008626 (Icam1) (24 h average): −0.2705
- Gene expression data BC010462 (BC010462) (24 h average): −0.4089
- Gene expression data BC012247 (Dcxr) (24 h average): −0.0311
- Gene expression data BC012260 (Psmf1) (24 h average): −0.1838
- Gene expression data BC015270 (Hist2h3c2) (24 h average): 0.1186
- Gene expression data BC016073 (Cdkal1) (24 h average): 0.0051
- Gene expression data BC016265 (Ube2e2) (24 h average): 0.01507
- Gene expression data BC019882 (Acaa1b) (24 h average): 1.0984
- Gene expression data BC025501 (Aaas) (24 h average): −0.2261
- Gene expression data BC025837 (Sbk1) (24 h average): −0.3033
- Gene expression data BC025915 (Cova1) (24 h average): −0.05383
- Gene expression data BC026422 (Tgm1) (24 h average): 0.0232
- Gene expression data BF719766 (Thyn1) (24 h average): −0.1153
- Gene expression data BG065754 (Ccng1) (24 h average): −0.08917
- Gene expression data BG066903 (Kif16b) (24 h average): 0.0241
- Gene expression data BG069873 (Gnb1l) (24 h average): −0.2107
- Gene expression data BG070887 (Gtdc1) (24 h average): −0.05163
- Gene expression data BG076151 (Ppm1d) (24 h average): −0.08637
- Gene expression data BG261907 (Large) (24 h average): 0.09293
- Gene expression data BI651416 (Cdc42bpg) (24 h average): 0.01387
- Gene expression data BI660702 (Ell3) (24 h average): −0.1539
- Gene expression data BM198879 (Ercc5) (24 h average): −0.2194
- Gene expression data BM230508 (A030007D23Rik) (24 h average): −0.1178
- Gene expression data NM_007987 (Fas) (24 h average): −0.1337
- Gene expression data NM_008522 (Ltf) (24 h average): 0.0771
- Gene expression data NM_008576 (Abcc1) (24 h average): 0.3586
- Gene expression data NM_011176 (St14) (24 h average): −0.1445
- Gene expression data NM_011316 (Saa4) (24 h average): −0.1988
- Gene expression data NM_012006 (Acot1) (24 h average): 1.862
- Gene expression data NM_013866 (Zfp385) (24 h average): −0.1953
- Gene expression data NM_018770 (Igsf4a) (24 h average): −0.08853
- Gene expression data NM_021451 (Pmaip1) (24 h average): 0.01303
- Gene expression data NM_025770 (Atg10) (24 h average): −0.01263
- Gene expression data NM_028803 (Gbe1) (24 h average): −0.0826
- Gene expression data NM_030697 (Ankrd47) (24 h average): −0.1623
- Gene expression data NM_053168 (Trim11) (24 h average): −0.201
- Gene expression data NM_134188 (Acot2) (24 h average): 0.8696
- Gene expression data Y15910 (Diap2) (24 h average): 0.06533
- Gene expression AA561726 average (48 h): 0.3194
- Gene expression AF000969 average (48 h): −0.5599
- Gene expression AF022072 average (48 h): 0.5563
- Gene expression AF033112 average (48 h): 0.1422
- Gene expression AF055573 average (48 h): −0.1687
- Gene expression AF069954 average (48 h): −0.3847
- Gene expression AF297615 average (48 h): 0.111
- Gene expression AF335325 average (48 h): −0.0865
- Gene expression AI594683 average (48 h): −0.5224
- Gene expression AI747296 average (48 h): −0.0394
- Gene expression AK005731 average (48 h): −0.6498
- Gene expression AK007854 average (48 h): −0.2242
- Gene expression AK010447 average (48 h): −0.1083
- Gene expression AK010738 average (48 h): −0.06687
- Gene expression AK014608 average (48 h): −0.455
- Gene expression AK017734 average (48 h): −0.5275
- Gene expression AK018383 average (48 h): −0.0203
- Gene expression AK019979 average (48 h): 0.04547
- Gene expression AV095209 average (48 h): 0.2956
- Gene expression AV141095 average (48 h): −0.0311
- Gene expression AV173869 average (48 h): −0.005067
- Gene expression AV216768 average (48 h): 0.4153
- Gene expression AV219418 average (48 h): 0.1539
- Gene expression AV221299 average (48 h): 0.1649
- Gene expression AV246296 average (48 h): −0.1054
- Gene expression AV251625 average (48 h): 0.0423
- Gene expression AV254764 average (48 h): −0.265
- Gene expression AV327248 average (48 h): 0.0856
- Gene expression BB009155 average (48 h): −0.4697
- Gene expression BB027848 average (48 h): −0.2609
- Gene expression BB043558 average (48 h): −0.188
- Gene expression BB046347 average (48 h): −0.1072
- Gene expression BB140436 average (48 h): −0.07237
- Gene expression BB204486 average (48 h): 0.3188
- Gene expression BB223872 average (48 h): −0.4287
- Gene expression BB246912 average (48 h): −0.1992
- Gene expression BB275142 average (48 h): −0.2874
- Gene expression BB458460 average (48 h): 0.007967
- Gene expression BB463610 average (48 h): −0.2186
- Gene expression BB730977 average (48 h): 0.7532
- Gene expression BB743970 average (48 h): 0.1551
- Gene expression BB770528 average (48 h): −0.001733
- Gene expression BB781615 average (48 h): −0.2937
- Gene expression BC003284 average (48 h): −0.2108
- Gene expression BC004827 average (48 h): 0.3756
- Gene expression BC005552 average (48 h): 0.3056
- Gene expression BC006713 average (48 h): −0.1305
- Gene expression BC010318 average (48 h): 0.1353
- Gene expression BC012247 average (48 h): −0.5319
- Gene expression BC012955 average (48 h): −0.2554
- Gene expression BC013893 average (48 h): −0.5709
- Gene expression BC017615 average (48 h): 0.06827
- Gene expression BC019379 average (48 h): 0.0072
- Gene expression BC019882 average (48 h): 0.1948
- Gene expression BC021352 average (48 h): 0.06563
- Gene expression BC022148 average (48 h): −0.1976
- Gene expression BC025169 average (48 h): −0.0788
- Gene expression BC026131 average (48 h): 0.0392
- Gene expression BC027026 average (48 h): −0.007933
- Gene expression BC027121 average (48 h): −0.1424
- Gene expression BC027185 average (48 h): −0.2381
- Gene expression BE956581 average (48 h): 0.04267
- Gene expression BF719766 average (48 h): 0.07637
- Gene expression BG065754 average (48 h): 0.0641
- Gene expression BG066491 average (48 h): −0.061
- Gene expression BG076151 average (48 h): −0.241
- Gene expression BG076333 average (48 h): 0.2383
- Gene expression BG797099 average (48 h): −0.02097
- Gene expression BG967046 average (48 h): −0.2562
- Gene expression BI651416 average (48 h): −0.1051
- Gene expression BI966443 average (48 h): 0.07723
- Gene expression BM198879 average (48 h): −0.1608
- Gene expression BM200015 average (48 h): 0.009533
- Gene expression BM230508 average (48 h): −0.471
- Gene expression BM936480 average (48 h): −0.04323
- Gene expression BQ174991 average (48 h): 0.4039
- Gene expression L21027 average (48 h): 0.3857
- Gene expression NM_007556 average (48 h): 0.5247
- Gene expression NM_007980 average (48 h): 0.1776
- Gene expression NM_007987 average (48 h): −0.005833
- Gene expression NM_008522 average (48 h): −0.06957
- Gene expression NM_008935 average (48 h): 0.3779
- Gene expression NM_009897 average (48 h): 0.09963
- Gene expression NM_011075 average (48 h): 0.3891
- Gene expression NM_011176 average (48 h): −0.4607
- Gene expression NM_011316 average (48 h): −0.4717
- Gene expression NM_012006 average (48 h): 1.5971
- Gene expression NM_013642 average (48 h): 0.3286
- Gene expression NM_013738 average (48 h): −0.3378
- Gene expression NM_013929 average (48 h): −0.006633
- Gene expression NM_018881 average (48 h): 0.08383
- Gene expression NM_019738 average (48 h): −0.6326
- Gene expression NM_030697 average (48 h): −0.6238
- Gene expression NM_053122 average (48 h): −0.04513
- Gene expression NM_134147 average (48 h): −0.2207
- Gene expression NM_134188 average (48 h): 0.2382
- Gene expression X62701 average (48 h): 0.7542
